Measurements reported in ChEMBL document CHEMBL4043265, “Discovery of imidazo[1,2-a]-, [1,2,4]triazolo[4,3-a]-, and [1,2,4]triazolo[1,5-a]pyridine-8-carboxamide negative allosteric modulators of metabotropic glutamate receptor subtype 5” (Bioorg Med Chem Lett, 2017).
pIC50: −log10 of the molar value. The source made the active and inactive calls. The calls are words filed in the database; no cut-off is given here.

How the values were obtained:
[1] = molecular target: Metabotropic glutamate receptor 5 (Rattus norvegicus, UniProt P31424); assay: Negative allosteric modulation of rat mGlu5 receptor expressed in HEK293 cells assessed as inhibition of glutamate induced-calcium mobilization preincubated for 2.3 mins followed by glutamate addition measured after 1.7 mins by Fluo-4 AM dye based fluorescence assay; assay type: functional, cell-based
Metabotropic glutamate receptor 5, sequence (P31424 whole entry): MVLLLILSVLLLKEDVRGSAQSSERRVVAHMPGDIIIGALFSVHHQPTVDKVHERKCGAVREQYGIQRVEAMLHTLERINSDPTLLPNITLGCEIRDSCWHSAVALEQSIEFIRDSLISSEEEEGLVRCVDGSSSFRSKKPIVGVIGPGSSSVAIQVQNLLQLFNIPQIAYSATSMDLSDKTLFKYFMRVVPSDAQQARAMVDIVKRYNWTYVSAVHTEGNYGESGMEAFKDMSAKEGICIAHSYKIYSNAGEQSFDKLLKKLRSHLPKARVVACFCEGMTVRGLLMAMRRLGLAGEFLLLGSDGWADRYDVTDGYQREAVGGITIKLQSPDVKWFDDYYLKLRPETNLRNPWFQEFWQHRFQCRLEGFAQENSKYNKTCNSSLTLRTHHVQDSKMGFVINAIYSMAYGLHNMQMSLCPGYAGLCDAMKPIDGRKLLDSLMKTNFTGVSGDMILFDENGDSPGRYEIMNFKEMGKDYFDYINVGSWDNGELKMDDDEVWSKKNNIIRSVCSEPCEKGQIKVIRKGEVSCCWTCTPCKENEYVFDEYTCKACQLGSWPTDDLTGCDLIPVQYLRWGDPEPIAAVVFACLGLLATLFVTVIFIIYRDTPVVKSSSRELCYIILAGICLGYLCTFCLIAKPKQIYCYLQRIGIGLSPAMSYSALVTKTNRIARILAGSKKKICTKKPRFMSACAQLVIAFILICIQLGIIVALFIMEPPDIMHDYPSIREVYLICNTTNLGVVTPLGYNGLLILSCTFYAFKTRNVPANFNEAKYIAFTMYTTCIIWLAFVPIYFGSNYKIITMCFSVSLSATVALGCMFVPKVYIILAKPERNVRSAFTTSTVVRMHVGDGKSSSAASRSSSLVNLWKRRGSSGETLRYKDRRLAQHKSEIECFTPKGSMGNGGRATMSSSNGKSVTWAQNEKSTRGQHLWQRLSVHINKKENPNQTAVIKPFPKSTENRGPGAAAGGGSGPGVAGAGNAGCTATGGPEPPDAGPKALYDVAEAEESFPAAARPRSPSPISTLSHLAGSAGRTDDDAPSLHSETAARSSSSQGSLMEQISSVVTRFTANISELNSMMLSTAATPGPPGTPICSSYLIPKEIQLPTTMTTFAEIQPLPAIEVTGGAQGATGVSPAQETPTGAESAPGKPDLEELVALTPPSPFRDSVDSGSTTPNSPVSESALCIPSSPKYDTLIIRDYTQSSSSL

[2] = molecular target: Metabotropic glutamate receptor 5 (Rattus norvegicus) (UniProt P31424); assay: Negative allosteric modulation of rat mGlu5 receptor expressed in HEK293 cells assessed as inhibition of glutamate induced-calcium mobilization at 30 uM preincubated for 2.3 mins followed by glutamate addition measured after 1.7 mins by Fluo-4 AM dye based fluorescence assay relative to glutamate; assay type: functional, cell-based
Metabotropic glutamate receptor 5 (Rattus norvegicus), sequence (P31424 21-1203 limits assumed): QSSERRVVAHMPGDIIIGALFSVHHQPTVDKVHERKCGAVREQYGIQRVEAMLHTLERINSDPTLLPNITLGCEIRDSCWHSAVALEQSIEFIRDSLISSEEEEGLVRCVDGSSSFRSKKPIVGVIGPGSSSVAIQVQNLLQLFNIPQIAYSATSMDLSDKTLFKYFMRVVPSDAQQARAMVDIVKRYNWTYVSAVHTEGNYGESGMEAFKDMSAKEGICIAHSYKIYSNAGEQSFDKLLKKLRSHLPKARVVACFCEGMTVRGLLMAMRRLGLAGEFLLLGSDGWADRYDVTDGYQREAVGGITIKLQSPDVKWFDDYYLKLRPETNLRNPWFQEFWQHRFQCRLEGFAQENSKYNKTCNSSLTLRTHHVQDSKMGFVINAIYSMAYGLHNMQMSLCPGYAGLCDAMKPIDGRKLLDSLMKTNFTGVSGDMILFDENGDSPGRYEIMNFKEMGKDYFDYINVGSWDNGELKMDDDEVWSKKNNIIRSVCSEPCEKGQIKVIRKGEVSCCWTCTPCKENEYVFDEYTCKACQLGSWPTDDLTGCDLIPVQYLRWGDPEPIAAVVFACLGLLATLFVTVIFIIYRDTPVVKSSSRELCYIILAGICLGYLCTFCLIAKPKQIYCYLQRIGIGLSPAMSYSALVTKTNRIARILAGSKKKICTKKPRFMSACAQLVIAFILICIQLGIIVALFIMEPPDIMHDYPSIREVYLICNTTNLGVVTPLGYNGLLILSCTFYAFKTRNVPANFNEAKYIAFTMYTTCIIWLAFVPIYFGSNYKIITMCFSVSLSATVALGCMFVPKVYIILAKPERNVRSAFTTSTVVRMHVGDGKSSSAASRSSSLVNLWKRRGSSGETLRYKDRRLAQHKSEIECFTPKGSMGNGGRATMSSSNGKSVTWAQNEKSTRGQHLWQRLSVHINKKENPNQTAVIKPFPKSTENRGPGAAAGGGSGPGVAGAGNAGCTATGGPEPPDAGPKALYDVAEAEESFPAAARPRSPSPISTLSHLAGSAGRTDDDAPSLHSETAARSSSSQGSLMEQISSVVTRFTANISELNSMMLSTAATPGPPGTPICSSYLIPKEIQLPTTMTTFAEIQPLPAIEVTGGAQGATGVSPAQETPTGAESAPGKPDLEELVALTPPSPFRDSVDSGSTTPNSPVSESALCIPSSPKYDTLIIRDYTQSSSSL

Mus musculus [3] = assay: Anxiolytic-like activity in Harlan CD-1 mouse marble burying model of OCD assessed as suppression of marble burying activity at 10 mg/kg, ip administered 15 mins prior to test measured over 30 mins; assay type: functional, organism-based
Cytochrome P450 1A2 = molecular target: T1, Cytochrome P450 1A2 (Homo sapiens, UniProt P05177)
T1 sequence (P05177 whole entry): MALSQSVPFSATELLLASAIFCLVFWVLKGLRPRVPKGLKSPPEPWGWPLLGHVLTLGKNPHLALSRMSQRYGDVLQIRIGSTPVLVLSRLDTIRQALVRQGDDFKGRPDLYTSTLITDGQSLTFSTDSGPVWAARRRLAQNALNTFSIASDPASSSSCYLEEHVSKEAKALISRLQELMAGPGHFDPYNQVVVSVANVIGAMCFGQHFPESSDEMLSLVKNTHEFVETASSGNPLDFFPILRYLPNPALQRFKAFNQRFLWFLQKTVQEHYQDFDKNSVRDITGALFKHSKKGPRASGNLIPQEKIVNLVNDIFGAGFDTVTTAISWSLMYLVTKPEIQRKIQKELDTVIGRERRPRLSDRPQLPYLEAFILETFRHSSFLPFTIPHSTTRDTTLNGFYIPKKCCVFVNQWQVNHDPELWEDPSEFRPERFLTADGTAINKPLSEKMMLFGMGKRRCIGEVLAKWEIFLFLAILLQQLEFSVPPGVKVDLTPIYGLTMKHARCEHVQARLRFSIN

Cytochrome P450 2C9 = Cytochrome P450 2C9 (Homo sapiens, UniProt P11712)
Cytochrome P450 2C9, sequence (P11712 whole entry): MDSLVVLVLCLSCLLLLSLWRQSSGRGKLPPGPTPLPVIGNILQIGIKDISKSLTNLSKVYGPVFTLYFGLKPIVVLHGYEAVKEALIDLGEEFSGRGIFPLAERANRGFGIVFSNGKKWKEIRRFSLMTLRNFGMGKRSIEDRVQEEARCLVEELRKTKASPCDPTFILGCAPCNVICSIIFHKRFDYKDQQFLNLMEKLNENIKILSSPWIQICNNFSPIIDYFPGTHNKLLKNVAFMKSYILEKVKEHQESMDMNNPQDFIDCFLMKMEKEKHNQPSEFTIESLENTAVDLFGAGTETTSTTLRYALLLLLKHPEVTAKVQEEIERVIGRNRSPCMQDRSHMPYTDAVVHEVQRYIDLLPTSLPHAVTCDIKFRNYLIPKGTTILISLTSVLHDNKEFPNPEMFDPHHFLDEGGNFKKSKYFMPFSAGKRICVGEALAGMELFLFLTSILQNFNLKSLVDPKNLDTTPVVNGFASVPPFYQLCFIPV

Cytochrome P450 2D6 = Cytochrome P450 2D6 (Homo sapiens, UniProt P10635)
Cytochrome P450 2D6, sequence (P10635 whole entry): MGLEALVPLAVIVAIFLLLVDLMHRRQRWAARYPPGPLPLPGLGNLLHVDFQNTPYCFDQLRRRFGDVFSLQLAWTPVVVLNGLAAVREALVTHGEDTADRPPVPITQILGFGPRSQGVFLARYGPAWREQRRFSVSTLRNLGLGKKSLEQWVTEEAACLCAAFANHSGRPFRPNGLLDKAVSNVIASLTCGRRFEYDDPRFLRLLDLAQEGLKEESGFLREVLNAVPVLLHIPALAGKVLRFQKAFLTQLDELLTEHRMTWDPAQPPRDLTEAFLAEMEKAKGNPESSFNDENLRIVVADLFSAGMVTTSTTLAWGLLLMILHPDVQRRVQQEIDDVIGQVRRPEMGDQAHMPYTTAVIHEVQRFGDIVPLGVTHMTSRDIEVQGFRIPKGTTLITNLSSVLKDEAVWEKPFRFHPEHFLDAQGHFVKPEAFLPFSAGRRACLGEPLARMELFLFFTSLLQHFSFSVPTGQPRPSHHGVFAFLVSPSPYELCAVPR

Cytochrome P450 3A4 = Cytochrome P450 3A4 (Homo sapiens, UniProt P08684)
Cytochrome P450 3A4, sequence (P08684 whole entry): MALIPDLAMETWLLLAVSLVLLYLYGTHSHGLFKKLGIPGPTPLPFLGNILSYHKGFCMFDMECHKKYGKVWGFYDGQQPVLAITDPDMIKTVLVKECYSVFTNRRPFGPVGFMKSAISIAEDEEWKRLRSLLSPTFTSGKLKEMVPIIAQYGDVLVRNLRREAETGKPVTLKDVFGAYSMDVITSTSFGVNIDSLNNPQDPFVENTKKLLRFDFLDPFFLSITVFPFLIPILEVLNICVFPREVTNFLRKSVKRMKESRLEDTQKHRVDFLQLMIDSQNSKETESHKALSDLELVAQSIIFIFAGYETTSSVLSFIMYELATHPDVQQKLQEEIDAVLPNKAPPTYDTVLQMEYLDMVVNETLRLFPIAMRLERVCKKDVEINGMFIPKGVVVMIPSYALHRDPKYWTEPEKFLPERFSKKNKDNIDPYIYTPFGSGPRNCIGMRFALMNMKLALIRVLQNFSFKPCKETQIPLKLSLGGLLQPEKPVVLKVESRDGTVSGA

Plasma [4] = conditions: rat, 4 h, 5 µM
Plasma [5] = conditions: human, 4 h, 5 µM
[6] = Cmax in rat at 10 mg/kg, po; assay type: ADME, organism-based; parameters: dose 10 mg/kg, route oral; conditions: in vivo
[7] = AUC in rat at 10 mg/kg, po; assay type: ADME, organism-based; conditions: in vivo
[8] = Tmax in rat at 10 mg/kg, po; assay type: ADME, organism-based; conditions: in vivo
[9] = Plasma clearance in rat at 1 mg/kg, iv; assay type: ADME, organism-based
[10] = Volume of distribution at steady state in rat at 1 mg/kg, iv; assay type: ADME, organism-based; conditions: in vivo, read-out: Vdss
[11] = Mean residence time in rat at 1 mg/kg, iv; assay type: ADME, organism-based; conditions: in vivo
[12] = Half life in rat at 1 mg/kg, iv; assay type: ADME, organism-based; conditions: in vivo
[13] = Brain to plasma partition coefficient, Kp of the compound in rat at 3 mg/kg, po; assay type: ADME, organism-based
[14] = Ratio of unbound brain to plasma concentration in rat at 3 mg/kg, po; assay type: ADME, organism-based
[15] = Apparent permeability of the compound across apical side to basolateral side in MDCK cells expressing MDR1 measured every 30 mins for 2 hrs; assay type: ADME, cell-based, Canis lupus familiaris; conditions: dog
[16] = Apparent permeability of the compound across basolateral side to apical side in MDCK cells expressing MDR1 measured every 30 mins for 2 hrs; assay type: ADME, cell-based, Canis lupus familiaris; conditions: dog
Brain = assay: Fraction unbound in rat brain homogenates at 5 uM after 6 hrs by equilibrium dialysis method; assay type: ADME, tissue-based; conditions: brain homogenate
[17] = Oral bioavailability in rat at 10 mg/kg; assay type: ADME, organism-based; conditions: in vivo
Mus musculus [18] = assay: Anxiolytic-like activity in ip dosed Harlan CD-1 mouse marble burying model of OCD assessed as suppression of marble burying activity administered 15 mins prior to test measured over 30 mins; assay type: functional; conditions: Harlan CD-1, ip, read-out: MED
[19] = molecular target: T2, DAT (sodium-dependent dopamine transporter) (Homo sapiens, UniProt Q01959); assay: in vitro
T2 sequence (Q01959 whole entry): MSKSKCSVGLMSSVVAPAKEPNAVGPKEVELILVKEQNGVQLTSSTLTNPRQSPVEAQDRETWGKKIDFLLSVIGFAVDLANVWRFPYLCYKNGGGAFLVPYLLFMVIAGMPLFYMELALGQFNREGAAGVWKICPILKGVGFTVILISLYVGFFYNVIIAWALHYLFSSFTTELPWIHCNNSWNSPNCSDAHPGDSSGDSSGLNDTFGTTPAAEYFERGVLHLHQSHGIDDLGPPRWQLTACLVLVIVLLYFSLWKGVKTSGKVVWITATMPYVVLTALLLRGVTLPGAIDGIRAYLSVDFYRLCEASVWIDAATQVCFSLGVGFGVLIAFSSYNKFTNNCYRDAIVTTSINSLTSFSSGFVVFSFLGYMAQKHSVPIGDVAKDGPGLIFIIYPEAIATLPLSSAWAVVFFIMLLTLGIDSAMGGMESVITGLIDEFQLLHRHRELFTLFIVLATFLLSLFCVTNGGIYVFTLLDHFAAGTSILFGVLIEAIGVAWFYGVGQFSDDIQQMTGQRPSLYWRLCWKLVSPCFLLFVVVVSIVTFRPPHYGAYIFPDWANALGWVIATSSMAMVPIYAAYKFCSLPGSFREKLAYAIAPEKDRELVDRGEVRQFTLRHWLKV

[20] = molecular target: Platelet-activating factor receptor (Homo sapiens) (UniProt P25105); assay: Displacement of [3H]PAF from human PAF at 10 uM after 3 hrs by scintillation counting method relative to control
Platelet-activating factor receptor (Homo sapiens), sequence (P25105 whole entry): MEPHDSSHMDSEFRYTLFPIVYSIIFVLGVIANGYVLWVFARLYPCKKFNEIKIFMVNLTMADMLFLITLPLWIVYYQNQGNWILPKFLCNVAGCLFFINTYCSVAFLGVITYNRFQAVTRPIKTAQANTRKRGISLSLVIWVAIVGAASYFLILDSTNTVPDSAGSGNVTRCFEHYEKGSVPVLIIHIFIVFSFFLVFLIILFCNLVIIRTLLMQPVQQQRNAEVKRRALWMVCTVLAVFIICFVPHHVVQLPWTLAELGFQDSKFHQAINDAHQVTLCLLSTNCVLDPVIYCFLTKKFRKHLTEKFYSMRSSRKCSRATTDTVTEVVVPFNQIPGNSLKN

[21] = molecular target: Sodium-dependent dopamine transporter (Homo sapiens, UniProt Q01959); assay type: ADME, cell-based
Sodium-dependent dopamine transporter, sequence (Q01959 whole entry): as the sequence (Q01959 whole entry) above

[22] = molecular target: T2, DAT (sodium-dependent dopamine transporter); assay: Inhibition of full-length recombinant human DAT expressed in CHOK1 cells assessed as reduction in [3H]dopamine uptake at 10 uM pretreated for 20 mins followed by [3H]dopamine addition measured after 10 mins by scintillation counting method relative to control; assay type: cell-based; conditions: CHO-K1 cells expressing full-length recombinant human DAT, probe [3H]dopamine
[23] = CHO-K1 cells expressing recombinant human DAT, probe [125I]RTI-55

| SMILES | pIC50 [1] | %max [2] | pIC50 (Cytochrome P450 1A2) | pIC50 (Cytochrome P450 2C9) | pIC50 (Cytochrome P450 2D6) | pIC50 (Cytochrome P450 3A4) | Fu (Plasma [4]) | Fu (Plasma [5]) | other results |
| --- | --- | --- | --- | --- | --- | --- | --- | --- | --- |
| Cc1nnc2c(C(=O)Nc3ccc(F)cn3)cc(Oc3cncc(F)c3)cn12 | 6.43 | 2.7% | – | – | – | – | – | – | – |
| O=C(Nc1ccc(F)cn1)c1cc(Oc2cncc(Cl)c2)cn2ncnc12 | 7.05 | 1.1% | – | – | – | – | – | – | – |
| Cc1cc(Oc2cncnc2)cc(C(=O)Nc2ccc(F)cn2)n1 | – | – | – | – | – | – | – | – | Activity (Mus musculus [3]): Active |
| O=C(Nc1cccc(F)n1)c1cc(Oc2cncc(F)c2)cn2ccnc12 | 7.42 | 1.5% | 6.22 | 5.80 | 4.61 | 5.64 | 0.023 | 0.026 | – |
| O=C(Nc1ccc(F)cn1)c1cc(Oc2cncc(F)c2)cn2cnnc12 | 7.57 | 2.3% | 5.37 | < 4.52 | < 4.52 | 4.75 | 0.051 | 0.1 | Cmax [6]: 573 nM; AUC [7]: 5.67 µM·h; Tmax [8]: 3 h; clearance [9]: 14 mL/min/kg; Vd [10]: 1.6 L/kg; MRT [11]: 1.97 h; half-life [12]: 1.32 h; Kp [13]: 1.7; K(p,uu,brain) [14]: 2.1; Papp [15]: 4.7 ×10⁻⁶ cm/s; Papp [16]: 11.1 ×10⁻⁶ cm/s; Fu (Brain): 0.065; bioavailability [17]: 17%; minimal effective dose (Mus musculus [18]): 3 mg/kg; inhibition at 3 h, 10 µM [19, 23]: 91% |
| Cc1nc2c(C(=O)Nc3ccc(F)cn3)cc(Oc3cncc(F)c3)cn2n1 | 5.85 | 3.3% | – | – | – | – | – | – | – |
| O=C(Nc1ccc(F)cn1)c1cc(Oc2cncc(OC(F)F)c2)cn2ncnc12 | 6.89 | 1.7% | – | – | – | – | – | – | – |
| COc1ccc(NC(=O)c2cc(Oc3cncc(F)c3)cn3ccnc23)nc1 | 7.26 | 1.6% | 5.96 | 5.24 | < 4.52 | 5.70 | 0.014 | 0.028 | – |
| O=C(Nc1ccc(F)cn1)c1cc(Oc2cncc(F)c2)cn2ncnc12 | 7.70 | 1.5% | 4.82 | < 4.52 | < 4.52 | < 4.52 | 0.066 | 0.071 | Cmax [6]: 673 nM; AUC [7]: 8.3 µM·h; Tmax [8]: 3 h; clearance [9]: 11 mL/min/kg; Vd [10]: 1.6 L/kg; MRT [11]: 2.38 h; half-life [12]: 1.35 h; Kp [13]: 1.4; K(p,uu,brain) [14]: 0.6; Papp [15]: 10 ×10⁻⁶ cm/s; Papp [16]: 13.1 ×10⁻⁶ cm/s; Fu (Brain): 0.028; bioavailability [17]: 20%; minimal effective dose (Mus musculus [18]): 3 mg/kg; inhibition [20]: 55%; pIC50 [21]: 6.14; inhibition at 3 h, 10 µM [19, 23]: 89% |
| O=C(Nc1ccc(F)cn1)c1cc(Oc2cnc(F)c(F)c2)cn2ncnc12 | 7.25 | 1.6% | < 4.52 | < 4.52 | < 4.52 | 4.64 | 0.023 | 0.031 | pIC50 [21]: 5.54; inhibition at 3 h, 10 µM [19]: 67% |
| O=C(Nc1ccc(F)cn1)c1cc(Oc2cncnc2)cn2cnnc12 | 6.49 | 1.6% | – | – | – | – | – | – | – |
| O=C(Nc1ccc(F)cn1)c1cc(Oc2cncc(F)c2)cn2ccnc12 | 7.70 | 1.6% | 6.10 | 5.24 | < 4.52 | 5.41 | 0.028 | 0.02 | – |
| O=C(Nc1ccc(F)cn1)c1cc(Oc2cncc(F)c2F)cn2ncnc12 | 7.39 | 2% | 5.39 | < 4.52 | < 4.52 | < 4.52 | 0.066 | 0.067 | inhibition at 3 h, 10 µM [19, 23]: 87% |
| O=C(Nc1ccc(F)cn1)c1cc(Oc2cncnc2)cn2ncnc12 | 7.13 | 1.5% | 5.00 | < 4.52 | < 4.52 | < 4.52 | 0.168 | 0.313 | pIC50 [21]: < 5.00; inhibition at 10 min, 10 µM [22]: 42%; inhibition at 3 h, 10 µM [19, 23]: 60% |
| O=C(Nc1ccc(F)cn1)c1cc(Oc2cc(F)cnc2F)cn2ncnc12 | 6.93 | 2.2% | – | – | – | – | – | – | – |
| Cc1ccc(NC(=O)c2cc(Oc3cncc(F)c3)cn3ccnc23)nc1 | 7.13 | 1.4% | 6.10 | 5.16 | < 4.52 | 5.72 | 0.005 | 0.016 | – |
